Like-named read-outs stand apart in the source and are kept apart here.
Tests used:
[1] = patients, high dose (>50 mg MTX/kg) therapy regimens; cited from earlier work
human hepatocytes = details: read-out: IC50 (toxic to hepatocytes); cited from earlier work
AOX1 [2] = details: rat hepatocytes, 0–20 μM NIM for 24 h, concentration-dependent
AOX [3] = system: AOX
AOX3 mRNA [4] = details: rat livers, 20, 50, 100 mg·kg−1·d−1 NIM for 5 days
AOX3 [5] = details: rat hepatocytes, 0–20 μM NIM for 24 h, concentration-dependent
AOX [6] = test: AOX activity in rat hepatocytes, 7-OH MTX formation from probe substrate MTX; assay type: cell-based; details: for increase in 7-OH MTX yield vs control: then MTX 50 μM
AOX [7] = assay type: cell-based, human; details: for increase in 7-OH MTX yields vs control: human hepatocytes
AOX3 [8] = details: rat livers, 20, 50, 100 mg·kg−1·d−1 NIM for 5 days, dose-dependent
AOX3 mRNA [9] = details: rat hepatocytes, 0–20 μM NIM for 24 h
rat hepatocytes = details: read-out: IC50 (toxic to hepatocytes); cited from earlier work
AOX1 [10] = details: rat livers, 20, 50, 100 mg·kg−1·d−1 NIM for 5 days, dose-dependent
MRP2 = details: cited from earlier work
OATPs = details: cited from earlier work
AOX [11] = details: NIM 5–20 μM directly added to the RLC incubation of MTX
AOX1 mRNA = details: rat hepatocytes, 0–20 μM NIM for 24 h
[12] = system: sandwich-cultured rat hepatocytes; details: concentration-dependent
[13] = NIM-treated rats, 100 mg·kg−1·d−1, 5 days, vs nontreated rats

## CN(Cc1cnc2nc(N)nc(N)c2n1)c1ccc(C(=O)N[C@@H](CCC(=O)O)C(=O)O)cc1 [MTX, methotrexate]
[1]
  MTX excreted as 7-OH MTX: ≤ 33%

## CS(=O)(=O)Nc1ccc([N+](=O)[O-])cc1Oc1ccccc1 [NIM, nimesulide]
Human hepatocytes
  IC50: 213 µM
AOX1 [2]
  AOX1 protein level: increased
AOX [3]; [13]
  increase in AOX-mediated metabolite from JNJ-38877605 in liver cytosol: 3.8 fold
  increase in AOX-mediated metabolite from SGX523 in liver cytosol: 3.4 fold
  increase in AOX-mediated metabolite from phthalazine in liver cytosol: 2.5 fold
AOX [3]; rats pretreated with 20 mg·kg−1·d−1 NIM for 5 days
  increase in 7-OH MTX formation in liver cytosol vs vehicle: 1.9 fold
AOX [3]; rats pretreated with 50 mg·kg−1·d−1 NIM for 5 days
  increase in 7-OH MTX formation in liver cytosol vs vehicle: 3.2 fold
AOX [3]; rats pretreated with 100 mg·kg−1·d−1 NIM for 1 day
  increase in 7-OH MTX formation in liver cytosol vs vehicle: 1.0 fold
AOX [3]; rats pretreated with 100 mg·kg−1·d−1 NIM for 3 days
  increase in 7-OH MTX formation in liver cytosol vs vehicle: 2.0 fold
AOX [3]; rats pretreated with 100 mg·kg−1·d−1 NIM for 5 days (dose experiment)
  increase in 7-OH MTX formation in liver cytosol vs vehicle: 3.7 fold
AOX [3]; rats pretreated with 100 mg·kg−1·d−1 NIM for 5 days (time experiment)
  increase in 7-OH MTX formation in liver cytosol vs vehicle: 3.8 fold
male, Wistar, rat, feces, oral
  increase in accumulated excretion of 7-OH MTX in 0–24 h feces: 2.1 fold
male, Wistar, rat, urine, oral
  increase in accumulated excretion of 7-OH MTX in 0–24 h urine: 5.2 fold
  increase in accumulated excretion of MTX in 0–24 h urine: 1.8 fold
rats, 100 mg·kg−1·d−1 NIM for 5 days, then oral MTX 50 mg/kg
  accumulated excretion of MTX in 0–24 h feces: no significant change
AOX3 mRNA [4]
  AOX3 mRNA level: no significant alteration
AOX3 [5]
  AOX3 protein level: decreased
AOX [6]; 5 μM NIM for 24 h
  increase in 7-OH MTX yields vs control: 1.3 fold
AOX [6]; 10 μM NIM for 24 h
  increase in 7-OH MTX yields vs control: 1.8 fold
AOX [6]; 20 μM NIM for 12 h
  increase in 7-OH MTX yield vs control: 1.7 fold
AOX [6]; 20 μM NIM for 24 h (concentration experiment)
  increase in 7-OH MTX yields vs control: 3.1 fold
AOX [6]; 20 μM NIM for 24 h (induction time experiment)
  increase in 7-OH MTX yield vs control: 2.5 fold
AOX [6]; 20 μM NIM for 48 h
  increase in 7-OH MTX yield vs control: 2.7 fold
AOX [6]; 20 μM NIM for 72 h
  increase in 7-OH MTX yield vs control: 2.7 fold
AOX [7]; 10 μM NIM for 24 h
  increase in 7-OH MTX yields vs control: 1.3 fold
AOX [7]; 50 μM NIM for 24 h
  increase in 7-OH MTX yields vs control: 1.7 fold
AOX [7]; 100 μM NIM for 24 h
  increase in 7-OH MTX yields vs control: 2.0 fold
AOX [7]; primary human hepatocytes, NIM (20 μM) for 24 h
  increase in 7-OH MTX formation: 2.0 fold
AOX3 [8]
  AOX3 protein level: decreased
AOX3 mRNA [9]
  AOX3 mRNA level: did not alter
Rat hepatocytes
  IC50: 40 µM
AOX1 [10]
  AOX1 protein level: increased
MRP2
  inhibition of MRP2: inhibitor
OATPs
  inhibition of OATPs: inhibitor
AOX [11]
  7-OH MTX formation vs incubation containing no NIM: no significant difference
AOX1 mRNA
  AOX1 mRNA level: did not alter
[12]
  cellular plus biliary accumulation of MTX: reduced

Reference: publication PMC7471466 (Acta Pharmacologica Sinica, 2020)
